Source: ChEMBL document CHEMBL5465560, “Selectivity Literature for EUbOPEN Chemogenomic Library” (2024)
Values belong to the compound of their own block, whether it stands above or below them.

Experiments:
[1] = molecular target: Dual specificity mitogen-activated protein kinase kinase 1 (Homo sapiens, UniProt Q02750); experiment: Selectivity interaction (Rxn Biology Kinase assay) EUB0001632a MAP2K1; settings: at 10 µM
[2] = molecular target: RAC-gamma serine/threonine-protein kinase (Homo sapiens, UniProt Q9Y243); experiment: Selectivity interaction (Upstate Kinase Profiler service (Millipore)) EUB0000056c AKT3; settings: at 1 µM
[3] = molecular target: Phosphatidylinositol 4-kinase beta (Homo sapiens, UniProt Q9UBF8); experiment: Selectivity interaction (ProQinase) EUB0000171b PI4KB
[4] = molecular target: Serine/threonine-protein kinase PLK1 (Homo sapiens, UniProt P53350); experiment: Selectivity interaction (KinomeScan (DiscoverX)) EUB0000595a PLK1; settings: at 10 µM
[5] = molecular target: T1, Serine/threonine-protein kinase RIO1 (Homo sapiens) (UniProt Q9BRS2); experiment: Selectivity interaction (KinomeScan (DiscoverX)) EUB0000595a RIOK1; settings: at 10 µM
T1 sequence (whole entry): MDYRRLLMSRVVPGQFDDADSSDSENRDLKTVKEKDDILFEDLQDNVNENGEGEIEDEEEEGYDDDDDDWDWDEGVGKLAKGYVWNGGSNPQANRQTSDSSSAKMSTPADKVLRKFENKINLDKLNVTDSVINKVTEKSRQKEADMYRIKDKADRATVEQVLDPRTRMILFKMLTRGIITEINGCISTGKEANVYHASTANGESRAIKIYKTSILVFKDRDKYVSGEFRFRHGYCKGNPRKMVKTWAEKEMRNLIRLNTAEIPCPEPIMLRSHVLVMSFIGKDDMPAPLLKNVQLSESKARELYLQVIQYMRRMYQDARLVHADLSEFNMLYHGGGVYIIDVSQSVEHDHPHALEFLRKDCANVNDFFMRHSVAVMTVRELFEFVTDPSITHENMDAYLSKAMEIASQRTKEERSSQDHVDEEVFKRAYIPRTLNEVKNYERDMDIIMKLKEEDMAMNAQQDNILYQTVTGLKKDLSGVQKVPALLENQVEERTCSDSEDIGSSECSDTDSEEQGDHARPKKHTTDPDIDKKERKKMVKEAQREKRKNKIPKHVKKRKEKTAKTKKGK

[6] = molecular target: T2, Serine/threonine-protein kinase Nek5 (Homo sapiens) (UniProt Q6P3R8); experiment: Selectivity interaction (KinomeScan (DiscoverX)) EUB0001049a NEK5; settings: at 1 µM
T2 sequence (whole entry): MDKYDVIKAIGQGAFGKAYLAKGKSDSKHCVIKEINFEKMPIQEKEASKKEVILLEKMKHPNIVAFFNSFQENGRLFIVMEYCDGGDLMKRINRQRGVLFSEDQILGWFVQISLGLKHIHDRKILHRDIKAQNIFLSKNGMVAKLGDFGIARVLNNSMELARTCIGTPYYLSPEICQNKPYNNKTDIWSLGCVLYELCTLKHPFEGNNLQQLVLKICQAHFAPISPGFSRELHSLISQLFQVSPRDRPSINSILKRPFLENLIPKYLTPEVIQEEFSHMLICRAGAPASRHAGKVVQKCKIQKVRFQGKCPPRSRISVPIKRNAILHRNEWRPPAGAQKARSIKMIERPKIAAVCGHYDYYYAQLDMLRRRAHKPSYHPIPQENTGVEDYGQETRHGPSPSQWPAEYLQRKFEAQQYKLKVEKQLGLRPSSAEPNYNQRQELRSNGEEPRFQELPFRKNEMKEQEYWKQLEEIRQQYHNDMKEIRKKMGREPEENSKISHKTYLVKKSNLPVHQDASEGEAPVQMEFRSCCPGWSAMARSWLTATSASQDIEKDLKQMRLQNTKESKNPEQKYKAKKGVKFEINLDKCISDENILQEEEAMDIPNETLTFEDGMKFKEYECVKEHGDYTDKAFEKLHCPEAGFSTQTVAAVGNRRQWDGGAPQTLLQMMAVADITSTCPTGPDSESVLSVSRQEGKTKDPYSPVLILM

[7] = molecular target: Insulin receptor-related protein (Homo sapiens) (UniProt P14616); experiment: Selectivity interaction (KinomeScan (DiscoverX)) EUB0000045b INSRR
[8] = molecular target: Cyclin-dependent kinase 9 (Homo sapiens, UniProt P50750); experiment: Selectivity interaction (KinomeScan (DiscoverX)) EUB0000618a CDK9; settings: at 10 µM
[9] = molecular target: T3, Megakaryocyte-associated tyrosine-protein kinase (Homo sapiens) (UniProt P42679); experiment: Selectivity interaction (KinomeScan (DiscoverX)) EUB0001619a MATK; settings: at 1 µM
T3 sequence (whole entry): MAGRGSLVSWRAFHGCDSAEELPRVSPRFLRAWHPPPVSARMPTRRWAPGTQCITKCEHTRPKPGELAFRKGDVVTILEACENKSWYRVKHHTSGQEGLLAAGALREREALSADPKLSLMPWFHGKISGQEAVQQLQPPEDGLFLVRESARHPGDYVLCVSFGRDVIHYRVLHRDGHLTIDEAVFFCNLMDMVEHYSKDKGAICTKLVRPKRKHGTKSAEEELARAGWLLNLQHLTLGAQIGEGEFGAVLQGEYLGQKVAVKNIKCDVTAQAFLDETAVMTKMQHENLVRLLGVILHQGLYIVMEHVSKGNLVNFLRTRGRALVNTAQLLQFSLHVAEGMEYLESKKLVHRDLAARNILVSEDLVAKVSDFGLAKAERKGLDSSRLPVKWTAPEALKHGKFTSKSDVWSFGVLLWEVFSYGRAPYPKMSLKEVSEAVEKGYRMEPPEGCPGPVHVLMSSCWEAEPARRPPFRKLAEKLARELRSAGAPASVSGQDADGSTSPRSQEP

[10] = molecular target: Ribosomal protein S6 kinase alpha-1 (Homo sapiens, UniProt Q15418); experiment: Selectivity interaction (ActivX KiNativ screen (ex vivo kinase selectivity in human PBMCs)) EUB0001619a RPS6KA1; format: cell-based; settings: PBMC, at 1 µM
Sequence of Ribosomal protein S6 kinase alpha-1 (Q15418 whole entry): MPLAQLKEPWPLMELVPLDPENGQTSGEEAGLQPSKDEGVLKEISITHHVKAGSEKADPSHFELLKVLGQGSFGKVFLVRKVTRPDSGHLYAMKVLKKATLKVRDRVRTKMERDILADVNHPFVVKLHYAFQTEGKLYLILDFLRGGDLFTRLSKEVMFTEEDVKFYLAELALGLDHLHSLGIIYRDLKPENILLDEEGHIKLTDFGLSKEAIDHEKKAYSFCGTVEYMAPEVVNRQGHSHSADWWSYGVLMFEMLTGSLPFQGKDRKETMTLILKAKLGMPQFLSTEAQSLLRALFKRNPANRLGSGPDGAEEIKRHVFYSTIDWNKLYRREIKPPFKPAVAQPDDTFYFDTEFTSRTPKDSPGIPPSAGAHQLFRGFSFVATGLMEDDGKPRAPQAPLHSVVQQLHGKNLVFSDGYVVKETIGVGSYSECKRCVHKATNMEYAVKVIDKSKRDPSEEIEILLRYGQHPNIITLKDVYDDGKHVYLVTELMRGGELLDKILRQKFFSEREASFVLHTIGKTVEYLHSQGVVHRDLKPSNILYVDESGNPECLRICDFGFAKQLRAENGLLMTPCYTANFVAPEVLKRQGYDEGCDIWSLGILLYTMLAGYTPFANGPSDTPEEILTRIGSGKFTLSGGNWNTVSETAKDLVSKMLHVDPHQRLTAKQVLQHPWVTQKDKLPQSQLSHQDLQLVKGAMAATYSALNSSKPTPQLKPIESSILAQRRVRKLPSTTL

Sequence of Insulin receptor-related protein (Homo sapiens) (P14616 27-742 limits assumed): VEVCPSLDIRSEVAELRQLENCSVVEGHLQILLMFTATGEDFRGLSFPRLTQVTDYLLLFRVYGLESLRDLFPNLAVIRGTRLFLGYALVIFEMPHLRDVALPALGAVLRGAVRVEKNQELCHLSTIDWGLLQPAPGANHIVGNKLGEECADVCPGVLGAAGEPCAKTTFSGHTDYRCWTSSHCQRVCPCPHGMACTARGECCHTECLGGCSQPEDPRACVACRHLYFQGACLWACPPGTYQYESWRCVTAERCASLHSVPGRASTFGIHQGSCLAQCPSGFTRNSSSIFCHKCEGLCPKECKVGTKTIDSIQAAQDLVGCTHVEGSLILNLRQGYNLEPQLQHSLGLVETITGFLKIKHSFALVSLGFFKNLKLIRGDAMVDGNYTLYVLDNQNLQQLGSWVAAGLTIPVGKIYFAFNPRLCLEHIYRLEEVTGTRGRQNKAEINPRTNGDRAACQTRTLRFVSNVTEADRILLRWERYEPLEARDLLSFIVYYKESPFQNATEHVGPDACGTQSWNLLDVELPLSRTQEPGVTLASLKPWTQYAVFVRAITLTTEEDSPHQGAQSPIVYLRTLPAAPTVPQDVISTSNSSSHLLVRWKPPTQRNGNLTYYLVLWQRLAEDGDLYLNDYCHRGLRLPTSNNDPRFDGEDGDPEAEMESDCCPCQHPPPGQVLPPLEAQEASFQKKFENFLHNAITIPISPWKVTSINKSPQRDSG
Sequence of Insulin receptor-related protein (Homo sapiens) (P14616 747-1297 limits assumed): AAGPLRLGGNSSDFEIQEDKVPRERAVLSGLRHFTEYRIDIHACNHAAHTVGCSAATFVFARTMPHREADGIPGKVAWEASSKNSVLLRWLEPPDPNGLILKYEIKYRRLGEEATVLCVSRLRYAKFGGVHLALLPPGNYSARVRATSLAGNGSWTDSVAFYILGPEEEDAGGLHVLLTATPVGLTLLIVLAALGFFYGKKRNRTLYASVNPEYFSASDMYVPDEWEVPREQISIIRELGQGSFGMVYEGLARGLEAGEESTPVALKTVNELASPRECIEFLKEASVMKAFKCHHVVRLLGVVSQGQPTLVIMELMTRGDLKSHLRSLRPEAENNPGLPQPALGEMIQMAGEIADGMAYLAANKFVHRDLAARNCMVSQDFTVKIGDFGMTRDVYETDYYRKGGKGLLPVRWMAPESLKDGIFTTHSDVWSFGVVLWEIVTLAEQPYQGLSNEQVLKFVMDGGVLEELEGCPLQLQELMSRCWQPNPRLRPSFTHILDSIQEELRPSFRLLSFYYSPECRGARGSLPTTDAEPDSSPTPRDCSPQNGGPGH
Sequence of Phosphatidylinositol 4-kinase beta (Q9UBF8 2-816 limits assumed): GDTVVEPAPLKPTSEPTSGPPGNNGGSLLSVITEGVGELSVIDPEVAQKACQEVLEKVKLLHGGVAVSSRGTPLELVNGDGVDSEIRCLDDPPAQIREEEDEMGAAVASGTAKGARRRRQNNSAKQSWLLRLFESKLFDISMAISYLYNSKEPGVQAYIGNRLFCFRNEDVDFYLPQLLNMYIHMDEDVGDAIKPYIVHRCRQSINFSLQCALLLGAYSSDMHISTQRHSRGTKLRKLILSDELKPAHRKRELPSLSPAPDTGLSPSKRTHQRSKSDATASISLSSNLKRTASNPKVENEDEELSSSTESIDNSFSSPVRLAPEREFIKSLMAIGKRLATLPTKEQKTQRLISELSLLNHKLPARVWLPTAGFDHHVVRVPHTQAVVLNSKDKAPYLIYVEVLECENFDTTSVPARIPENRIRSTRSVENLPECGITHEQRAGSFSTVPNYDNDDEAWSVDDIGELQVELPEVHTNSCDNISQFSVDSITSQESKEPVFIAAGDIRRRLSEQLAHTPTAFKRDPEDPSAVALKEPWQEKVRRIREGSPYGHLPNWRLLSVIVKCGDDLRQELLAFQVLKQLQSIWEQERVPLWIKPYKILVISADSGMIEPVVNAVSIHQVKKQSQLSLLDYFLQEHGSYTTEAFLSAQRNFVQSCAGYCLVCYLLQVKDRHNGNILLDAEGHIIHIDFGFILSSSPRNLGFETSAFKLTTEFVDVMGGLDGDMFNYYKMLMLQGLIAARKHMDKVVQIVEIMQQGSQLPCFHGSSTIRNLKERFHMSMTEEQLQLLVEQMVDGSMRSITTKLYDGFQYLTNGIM
Sequence of Serine/threonine-protein kinase PLK1 (P53350 whole entry): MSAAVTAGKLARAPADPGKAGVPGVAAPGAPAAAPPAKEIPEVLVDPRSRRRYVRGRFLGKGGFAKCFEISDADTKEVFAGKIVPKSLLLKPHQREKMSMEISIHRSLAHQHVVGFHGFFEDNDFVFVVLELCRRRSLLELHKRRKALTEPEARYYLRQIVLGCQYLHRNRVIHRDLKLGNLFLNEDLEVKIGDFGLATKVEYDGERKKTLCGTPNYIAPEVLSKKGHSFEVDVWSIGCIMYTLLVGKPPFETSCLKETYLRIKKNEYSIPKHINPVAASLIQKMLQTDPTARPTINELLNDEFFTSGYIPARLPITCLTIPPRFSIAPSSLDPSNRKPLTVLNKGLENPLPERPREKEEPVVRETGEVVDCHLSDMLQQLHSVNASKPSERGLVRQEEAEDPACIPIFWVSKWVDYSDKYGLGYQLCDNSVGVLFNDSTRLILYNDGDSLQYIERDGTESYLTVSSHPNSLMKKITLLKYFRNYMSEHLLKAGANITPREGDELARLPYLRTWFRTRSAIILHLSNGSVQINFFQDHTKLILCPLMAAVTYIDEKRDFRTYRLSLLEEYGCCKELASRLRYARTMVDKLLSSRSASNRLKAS
Sequence of Dual specificity mitogen-activated protein kinase kinase 1 (Q02750 whole entry): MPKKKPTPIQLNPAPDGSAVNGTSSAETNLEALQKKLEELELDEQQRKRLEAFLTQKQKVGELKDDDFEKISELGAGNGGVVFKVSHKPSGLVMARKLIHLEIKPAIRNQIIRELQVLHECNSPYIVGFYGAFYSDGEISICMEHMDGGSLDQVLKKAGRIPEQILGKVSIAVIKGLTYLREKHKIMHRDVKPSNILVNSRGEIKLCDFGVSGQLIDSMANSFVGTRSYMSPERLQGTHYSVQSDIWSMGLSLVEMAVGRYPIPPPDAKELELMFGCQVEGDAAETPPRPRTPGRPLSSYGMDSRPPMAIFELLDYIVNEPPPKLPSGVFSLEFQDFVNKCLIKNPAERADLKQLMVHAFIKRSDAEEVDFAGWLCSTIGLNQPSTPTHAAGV
Sequence of Cyclin-dependent kinase 9 (P50750 whole entry): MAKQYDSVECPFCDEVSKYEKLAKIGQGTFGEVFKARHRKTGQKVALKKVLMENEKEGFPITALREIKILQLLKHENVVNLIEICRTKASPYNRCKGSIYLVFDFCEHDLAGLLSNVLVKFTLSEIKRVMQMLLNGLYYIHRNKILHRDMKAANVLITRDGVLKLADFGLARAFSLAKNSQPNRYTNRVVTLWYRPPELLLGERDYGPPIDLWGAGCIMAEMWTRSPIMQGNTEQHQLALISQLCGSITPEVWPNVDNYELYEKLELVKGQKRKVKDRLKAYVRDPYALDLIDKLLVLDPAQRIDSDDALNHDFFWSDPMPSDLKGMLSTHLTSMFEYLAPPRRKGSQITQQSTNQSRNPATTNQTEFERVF
Sequence of RAC-gamma serine/threonine-protein kinase (Q9Y243 whole entry): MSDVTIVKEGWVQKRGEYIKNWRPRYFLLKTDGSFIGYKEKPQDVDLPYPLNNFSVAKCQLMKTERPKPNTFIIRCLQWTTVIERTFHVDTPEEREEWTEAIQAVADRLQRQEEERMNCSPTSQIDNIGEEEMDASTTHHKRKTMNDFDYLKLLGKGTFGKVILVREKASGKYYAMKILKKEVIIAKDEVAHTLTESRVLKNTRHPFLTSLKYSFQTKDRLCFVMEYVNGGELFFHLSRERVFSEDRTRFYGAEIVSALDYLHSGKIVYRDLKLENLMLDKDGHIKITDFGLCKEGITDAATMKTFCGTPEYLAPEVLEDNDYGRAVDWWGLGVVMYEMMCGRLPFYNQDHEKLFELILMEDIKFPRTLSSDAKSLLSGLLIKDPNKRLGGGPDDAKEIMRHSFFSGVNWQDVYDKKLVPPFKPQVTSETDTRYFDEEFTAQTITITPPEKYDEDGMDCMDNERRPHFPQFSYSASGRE

% of inhibition [1]: 4.54%
Structure (SMILES): Cn1cc(-n2cnc3c(NCc4nc5cc(Cl)c(Cl)cc5[nH]4)nc(N4CCOCC4)nc32)cn1

% of inhibition [2]: 0%
Structure (SMILES): Cc1ccc(-c2ccc3c(ccc4sc5c(c43)NC[C@@H](C)NC5=O)n2)cn1

% of control ([3]; at 1 µM): 101% | % of control ([3]; at 5 µM): 79%
Structure (SMILES): C=CC(=O)Nc1cccc(C(=O)Nc2ccc(Nc3cc(-c4[nH]c(SC)nc4C)ccn3)cc2)c1

Structure (SMILES): COCC(=O)NC/C=C/c1ccc2ncnc(Nc3ccc(Oc4ccc(C)nc4)c(C)c3)c2c1 [CP-724714]
% of control [4]: 81% | % of control [5]: 91%

Structure (SMILES): COc1cc(Nc2nc(C)cc(-c3cnn4nc(OC)ccc34)n2)cc(C(F)(F)F)c1
% of control [6]: 96%

Structure (SMILES): C=CC(=O)Nc1cc(-n2c(=O)ccc3cnc4ccc(-c5ccc(NS(C)(=O)=O)cc5)cc4c32)ccc1C
% of control ([7]; at 1 µM): 98% | % of control ([7]; at 10 µM): 100%

Structure (SMILES): O[C@H]1CC[C@H](Nc2ncc3nc(Nc4c(F)cc(F)cc4F)n([C@H]4CCOC4)c3n2)CC1
% of control [8]: 78%

Structure (SMILES): N#Cc1cccc(-c2c[nH]c3ncnc(N4CCOCC4)c23)c1
% of control [9]: 82% | % of inhibition [10]: 33%
